Measured values taken from paper PMC4979471 (Cell Death Discovery, 2015).
Where two headings read alike, the source gives them in different places.

Columns and labels:
Experiment in all cases: Kinase selectivity, P33-radiolabeled assay
Type in all cases: biochemical
Settings in all cases: 10 μM ATP
[1] = target: T1, c-MET (Homo sapiens, UniProt P08581)
T1 construct: purchased Reaction Biology Corp
Method in brief: (§1)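 Activity relative to DMSO controls (%) was measured for compound at 10 μM. Assays ran at 10 μM ATP, in duplicate.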

[2] = target: T2, TAOK3/JIK (Homo sapiens, UniProt Q9H2K8)
T2 construct: purchased Reaction Biology Corp
T2 sequence (Q9H2K8 1-898): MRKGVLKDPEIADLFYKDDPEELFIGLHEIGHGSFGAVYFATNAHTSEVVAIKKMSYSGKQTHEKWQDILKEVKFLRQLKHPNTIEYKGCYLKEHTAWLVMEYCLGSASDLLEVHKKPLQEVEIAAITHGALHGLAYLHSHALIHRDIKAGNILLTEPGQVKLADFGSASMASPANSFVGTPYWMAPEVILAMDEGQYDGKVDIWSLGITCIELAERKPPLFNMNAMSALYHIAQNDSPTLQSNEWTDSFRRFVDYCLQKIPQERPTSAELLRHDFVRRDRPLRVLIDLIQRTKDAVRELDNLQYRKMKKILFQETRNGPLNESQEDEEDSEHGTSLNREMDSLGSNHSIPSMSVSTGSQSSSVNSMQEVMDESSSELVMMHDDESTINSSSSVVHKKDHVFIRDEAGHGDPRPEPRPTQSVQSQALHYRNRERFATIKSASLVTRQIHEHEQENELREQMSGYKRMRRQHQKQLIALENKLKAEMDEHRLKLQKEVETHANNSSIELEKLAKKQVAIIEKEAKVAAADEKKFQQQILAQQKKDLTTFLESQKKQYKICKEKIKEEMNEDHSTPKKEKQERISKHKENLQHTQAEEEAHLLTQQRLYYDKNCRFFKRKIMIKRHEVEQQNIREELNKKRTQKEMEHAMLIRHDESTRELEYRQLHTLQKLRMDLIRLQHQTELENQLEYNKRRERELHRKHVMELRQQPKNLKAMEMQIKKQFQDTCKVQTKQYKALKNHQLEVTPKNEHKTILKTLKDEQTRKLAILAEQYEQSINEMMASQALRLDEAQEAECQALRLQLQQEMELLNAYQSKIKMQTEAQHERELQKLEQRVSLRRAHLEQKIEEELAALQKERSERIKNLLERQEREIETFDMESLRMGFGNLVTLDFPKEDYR
Method in brief: as §1

[3] = target: T3, SGK3/SGKL (Homo sapiens, UniProt Q96BR1)
T3 construct: purchased Reaction Biology Corp
T3 sequence (Q96BR1 1-496): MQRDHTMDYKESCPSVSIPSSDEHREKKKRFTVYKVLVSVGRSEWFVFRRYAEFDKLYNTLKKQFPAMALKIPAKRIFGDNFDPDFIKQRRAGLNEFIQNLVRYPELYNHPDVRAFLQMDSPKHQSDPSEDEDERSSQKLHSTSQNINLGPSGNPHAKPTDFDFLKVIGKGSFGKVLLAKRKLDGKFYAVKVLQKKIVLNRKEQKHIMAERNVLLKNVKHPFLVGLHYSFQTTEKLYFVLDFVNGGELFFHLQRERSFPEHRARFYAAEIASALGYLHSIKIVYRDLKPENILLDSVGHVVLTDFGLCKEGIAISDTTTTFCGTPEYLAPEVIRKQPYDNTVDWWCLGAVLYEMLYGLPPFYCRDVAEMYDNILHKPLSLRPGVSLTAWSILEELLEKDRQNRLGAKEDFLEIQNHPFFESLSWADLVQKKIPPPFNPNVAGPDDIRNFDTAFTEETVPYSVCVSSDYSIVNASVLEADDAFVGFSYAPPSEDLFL
Method in brief: as §1

[4] = target: T4, CDK4/cyclin D3 (Homo sapiens, UniProt P11802)
T4 construct: purchased Reaction Biology Corp
Method in brief: as §1

[5] = target: T5, TXK (Homo sapiens, UniProt P42681)
T5 construct: purchased Reaction Biology Corp
T5 sequence (P42681 1-527): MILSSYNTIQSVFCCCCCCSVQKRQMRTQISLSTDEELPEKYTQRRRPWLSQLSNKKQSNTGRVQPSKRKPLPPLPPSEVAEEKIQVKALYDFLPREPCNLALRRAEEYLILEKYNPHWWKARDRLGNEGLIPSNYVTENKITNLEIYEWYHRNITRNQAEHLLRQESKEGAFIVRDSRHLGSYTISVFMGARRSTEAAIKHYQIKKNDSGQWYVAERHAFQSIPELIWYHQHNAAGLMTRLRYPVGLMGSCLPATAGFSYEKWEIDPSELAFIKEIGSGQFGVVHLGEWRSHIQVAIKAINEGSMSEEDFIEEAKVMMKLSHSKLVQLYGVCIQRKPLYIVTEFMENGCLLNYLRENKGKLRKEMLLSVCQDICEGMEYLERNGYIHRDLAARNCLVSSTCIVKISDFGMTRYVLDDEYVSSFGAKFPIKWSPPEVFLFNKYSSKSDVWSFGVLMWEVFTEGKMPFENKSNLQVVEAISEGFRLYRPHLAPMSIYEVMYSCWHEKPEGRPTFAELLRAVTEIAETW
Method in brief: as §1

[6] = target: T6, JNK2 (Homo sapiens, UniProt P45984)
T6 construct: purchased Reaction Biology Corp
Method in brief: as §1

[7] = target: T7, FRK/PTK5 (Homo sapiens, UniProt P42685)
T7 construct: purchased Reaction Biology Corp
Method in brief: as §1

[8] = target: T8, COT1/MAP3K8 (Homo sapiens, UniProt P41279)
T8 construct: purchased Reaction Biology Corp
Method in brief: as §1

[9] = read-out: % Enzyme Activity (relative to DMSO controls) AVG
[10] = read-out: % Enzyme Activity (relative to DMSO controls) Data 1
[11] = read-out: % Enzyme Activity (relative to DMSO controls) Data 2

T8 sequence (P41279 whole entry): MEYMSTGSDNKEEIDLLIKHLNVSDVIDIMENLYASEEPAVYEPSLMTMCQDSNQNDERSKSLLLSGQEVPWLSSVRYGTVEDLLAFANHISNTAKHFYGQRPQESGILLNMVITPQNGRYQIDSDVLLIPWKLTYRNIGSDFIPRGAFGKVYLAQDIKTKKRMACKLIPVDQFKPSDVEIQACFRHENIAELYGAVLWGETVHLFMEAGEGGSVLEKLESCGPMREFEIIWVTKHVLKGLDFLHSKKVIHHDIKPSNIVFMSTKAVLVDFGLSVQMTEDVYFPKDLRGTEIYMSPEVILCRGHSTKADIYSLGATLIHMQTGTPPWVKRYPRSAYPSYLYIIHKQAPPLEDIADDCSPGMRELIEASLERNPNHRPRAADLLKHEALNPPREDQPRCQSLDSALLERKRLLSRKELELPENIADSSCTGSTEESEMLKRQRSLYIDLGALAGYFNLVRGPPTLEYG
T6 sequence (P45984 whole entry): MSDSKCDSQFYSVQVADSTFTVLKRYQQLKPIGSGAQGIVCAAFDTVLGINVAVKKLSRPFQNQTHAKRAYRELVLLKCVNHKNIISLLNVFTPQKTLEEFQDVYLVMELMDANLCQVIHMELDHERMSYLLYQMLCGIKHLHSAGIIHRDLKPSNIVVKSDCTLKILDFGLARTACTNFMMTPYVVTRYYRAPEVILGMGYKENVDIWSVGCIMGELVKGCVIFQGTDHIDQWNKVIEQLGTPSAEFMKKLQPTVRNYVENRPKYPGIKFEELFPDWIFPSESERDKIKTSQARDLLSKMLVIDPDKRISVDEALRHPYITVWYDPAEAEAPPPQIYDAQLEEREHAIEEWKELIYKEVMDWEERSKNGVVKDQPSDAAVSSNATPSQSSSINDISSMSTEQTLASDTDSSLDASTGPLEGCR
T1 sequence (P08581 25-1390): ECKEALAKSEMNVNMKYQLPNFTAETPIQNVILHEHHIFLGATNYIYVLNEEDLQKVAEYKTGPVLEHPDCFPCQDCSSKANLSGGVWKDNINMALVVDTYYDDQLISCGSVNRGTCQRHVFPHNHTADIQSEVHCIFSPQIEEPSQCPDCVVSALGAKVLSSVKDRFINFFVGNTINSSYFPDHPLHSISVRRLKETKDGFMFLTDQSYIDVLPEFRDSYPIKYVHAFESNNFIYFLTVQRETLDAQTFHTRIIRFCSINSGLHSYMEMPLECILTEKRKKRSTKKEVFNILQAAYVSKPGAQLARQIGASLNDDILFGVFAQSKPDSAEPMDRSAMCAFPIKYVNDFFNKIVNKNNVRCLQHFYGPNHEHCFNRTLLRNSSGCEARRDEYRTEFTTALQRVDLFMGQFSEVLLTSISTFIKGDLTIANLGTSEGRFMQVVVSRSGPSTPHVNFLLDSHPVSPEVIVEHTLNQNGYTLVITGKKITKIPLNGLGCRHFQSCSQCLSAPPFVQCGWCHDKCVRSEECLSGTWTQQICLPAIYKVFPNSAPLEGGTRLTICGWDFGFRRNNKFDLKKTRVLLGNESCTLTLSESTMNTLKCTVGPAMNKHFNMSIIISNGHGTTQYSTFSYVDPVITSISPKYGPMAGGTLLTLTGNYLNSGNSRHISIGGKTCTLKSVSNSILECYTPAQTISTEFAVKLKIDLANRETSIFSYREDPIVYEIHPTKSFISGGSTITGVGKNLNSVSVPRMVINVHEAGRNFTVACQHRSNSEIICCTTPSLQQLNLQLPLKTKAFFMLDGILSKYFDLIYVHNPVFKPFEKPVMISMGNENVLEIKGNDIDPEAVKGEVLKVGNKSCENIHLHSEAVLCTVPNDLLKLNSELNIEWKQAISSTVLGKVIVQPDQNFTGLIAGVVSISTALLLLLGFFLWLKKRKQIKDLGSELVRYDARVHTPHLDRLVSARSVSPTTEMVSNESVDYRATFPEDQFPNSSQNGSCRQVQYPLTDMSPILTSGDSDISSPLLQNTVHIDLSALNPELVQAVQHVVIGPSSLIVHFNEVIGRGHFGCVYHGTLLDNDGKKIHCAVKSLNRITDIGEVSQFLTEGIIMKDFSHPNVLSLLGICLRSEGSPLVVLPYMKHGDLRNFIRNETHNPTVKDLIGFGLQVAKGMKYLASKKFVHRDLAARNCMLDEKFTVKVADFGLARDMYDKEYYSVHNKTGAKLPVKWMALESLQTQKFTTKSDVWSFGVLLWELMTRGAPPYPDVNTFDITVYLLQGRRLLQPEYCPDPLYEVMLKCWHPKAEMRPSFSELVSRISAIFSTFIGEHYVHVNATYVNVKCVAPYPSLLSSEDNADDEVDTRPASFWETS
T7 sequence (P42685 whole entry): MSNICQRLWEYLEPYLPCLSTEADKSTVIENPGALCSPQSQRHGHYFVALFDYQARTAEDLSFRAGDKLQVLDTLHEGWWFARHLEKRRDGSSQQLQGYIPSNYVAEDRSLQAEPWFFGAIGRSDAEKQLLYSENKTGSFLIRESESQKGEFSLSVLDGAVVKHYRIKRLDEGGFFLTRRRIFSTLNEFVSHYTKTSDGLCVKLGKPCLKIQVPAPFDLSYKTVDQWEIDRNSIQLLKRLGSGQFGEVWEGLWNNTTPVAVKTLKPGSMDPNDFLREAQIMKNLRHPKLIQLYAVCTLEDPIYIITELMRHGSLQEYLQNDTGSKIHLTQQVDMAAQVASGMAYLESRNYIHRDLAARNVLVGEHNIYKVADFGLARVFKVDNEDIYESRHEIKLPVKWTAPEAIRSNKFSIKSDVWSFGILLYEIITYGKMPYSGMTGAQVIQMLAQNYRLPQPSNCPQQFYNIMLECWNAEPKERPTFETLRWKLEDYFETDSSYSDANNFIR
T4 sequence (P11802 whole entry): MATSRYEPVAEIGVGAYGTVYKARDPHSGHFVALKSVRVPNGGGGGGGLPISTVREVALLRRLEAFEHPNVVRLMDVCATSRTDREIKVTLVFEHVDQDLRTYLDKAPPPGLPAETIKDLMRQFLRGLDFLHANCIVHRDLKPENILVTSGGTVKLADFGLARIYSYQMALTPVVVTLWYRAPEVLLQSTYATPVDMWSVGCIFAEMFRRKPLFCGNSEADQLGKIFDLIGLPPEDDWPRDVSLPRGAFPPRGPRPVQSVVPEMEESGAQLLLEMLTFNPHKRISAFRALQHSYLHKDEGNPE
T4 sequence (P30281 whole entry partner): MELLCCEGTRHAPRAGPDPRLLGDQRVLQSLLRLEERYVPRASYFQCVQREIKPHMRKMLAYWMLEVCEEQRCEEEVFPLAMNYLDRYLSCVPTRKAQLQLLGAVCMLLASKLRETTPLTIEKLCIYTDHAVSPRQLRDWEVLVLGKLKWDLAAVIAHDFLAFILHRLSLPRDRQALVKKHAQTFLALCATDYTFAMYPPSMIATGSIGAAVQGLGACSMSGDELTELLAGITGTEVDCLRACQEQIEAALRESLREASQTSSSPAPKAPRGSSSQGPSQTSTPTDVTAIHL

Structure (SMILES): CC(C)(C)C(=O)N1N=CC[C@H]1c1ccccc1 [GSK′963]
- remaining activity at 10 µM [1, 9]: 94.5%
- remaining activity at 10 µM [1, 10]: 90.7%
- remaining activity at 10 µM [1, 11]: 98.3%
- remaining activity at 10 µM [2, 9]: 98.2%
- remaining activity at 10 µM [2, 10]: 99.2%
- remaining activity at 10 µM [2, 11]: 97.3%
- remaining activity at 10 µM [3, 9]: 107%
- remaining activity at 10 µM [3, 10]: 104%
- remaining activity at 10 µM [3, 11]: 110%
- remaining activity at 10 µM [4, 9]: 96.2%
- remaining activity at 10 µM [4, 10]: 98.3%
- remaining activity at 10 µM [4, 11]: 94.1%
- remaining activity at 10 µM [5, 9]: 96.3%
- remaining activity at 10 µM [5, 10]: 95.7%
- remaining activity at 10 µM [5, 11]: 96.8%
- remaining activity at 10 µM [6, 9]: 100%
- remaining activity at 10 µM [6, 10]: 96.4%
- remaining activity at 10 µM [6, 11]: 104%
- remaining activity at 10 µM [7, 9]: 86%
- remaining activity at 10 µM [7, 10]: 87.6%
- remaining activity at 10 µM [7, 11]: 84.4%
- remaining activity at 10 µM [8, 9]: 87.1%
- remaining activity at 10 µM [8, 10]: 86.6%
- remaining activity at 10 µM [8, 11]: 87.5%
